What was measured:
[1] = particle size and BET specific surface area of lovastatin crystals; format: physicochemical; conditions: for d(0.1) / d(0.5) / d(0.9): particle size; for d(0.9): 90% (volume) of particles below; for Spec. Pov.: specific surface area, BET method
[2] = dissolution of lovastatin samples of varying particle size in water (Table I); format: physicochemical; conditions: suspension in 0.1% Tween 80 diluted 100 times
Excerpt: At first we have prepared three samples of lovastatin* with varying particle size and compared dissolution** of those samples in water (Table I).

[3] = oral, cited from earlier work
[4] = room temperature; cited from earlier work

| Structure (SMILES) | d(0.1) [1] [μm] | d(0.5) [1] [μm] | d(0.9) [1] [μm] | Spec. Pov. [1] [m^2/g] | concentration of dissolved lovastatin ([2]; time 0 min) [ng/mL] | concentration of dissolved lovastatin ([2]; time 1 min) [ng/mL] | concentration of dissolved lovastatin ([2]; time 3 min) [ng/mL] | concentration of dissolved lovastatin ([2]; time 5 min) [ng/mL] | concentration of dissolved lovastatin ([2]; time 10 min) [ng/mL] | concentration of dissolved lovastatin ([2]; time 30 min) [ng/mL] | concentration of dissolved lovastatin ([2]; time 50 min) [ng/mL] | time to peak concentration in blood of active form ([3]; post-dose) [h] | share of total dose that crosses the intestinal membrane [3] [%] | volume of water required to dissolve 20 mg [4] |
| --- | --- | --- | --- | --- | --- | --- | --- | --- | --- | --- | --- | --- | --- | --- |
| CC[C@H](C)C(=O)O[C@H]1C[C@@H](C)C=C2C=C[C@H](C)[C@H](CC[C@@H]3C[C@@H](O)CC(=O)O3)[C@H]21 [A, lovastatin] | 1.6 | 6 | 22 | 3.3 | 0 | 650 | 770 | 780 | 810 | 880 | 900 | – | – | – |
| CC[C@H](C)C(=O)O[C@H]1C[C@@H](C)C=C2C=C[C@H](C)[C@H](CC[C@@H]3C[C@@H](O)CC(=O)O3)[C@H]21 [B, lovastatin] | 1.4 | 7.9 | 31 | 2.2 | 0 | 500 | 680 | 710 | 780 | 870 | 950 | – | – | – |
| CC[C@H](C)C(=O)O[C@H]1C[C@@H](C)C=C2C=C[C@H](C)[C@H](CC[C@@H]3C[C@@H](O)CC(=O)O3)[C@H]21 [C, lovastatin] | 17 | 54 | 163 | 0.7 | 0 | 250 | 300 | 400 | 560 | 820 | 940 | – | – | – |
| CC[C@H](C)C(=O)O[C@H]1C[C@@H](C)C=C2C=C[C@H](C)[C@H](CC[C@@H]3C[C@@H](O)CC(=O)O3)[C@H]21 [Example 4, lovastatin] | – | – | 163 | – | – | – | – | – | – | – | – | – | – | – |
| CC[C@H](C)C(=O)O[C@H]1C[C@@H](C)C=C2C=C[C@H](C)[C@H](CC[C@@H]3C[C@@H](O)CC(=O)O3)[C@H]21 [Example 5, lovastatin] | – | – | 77 | 1.3 | – | – | – | – | – | – | – | – | – | – |
| CC[C@H](C)C(=O)O[C@H]1C[C@@H](C)C=C2C=C[C@H](C)[C@H](CC[C@@H]3C[C@@H](O)CC(=O)O3)[C@H]21 [Example 6, lovastatin] | – | – | 22 | – | – | – | – | – | – | – | – | – | – | – |
| CC[C@H](C)C(=O)O[C@H]1C[C@@H](C)C=C2C=C[C@H](C)[C@H](CC[C@@H]3C[C@@H](O)CC(=O)O3)[C@H]21 [lovastatin] | – | – | – | – | – | – | – | – | – | – | – | 2.8 | 31 | about 15 litres |
